Assay [1] has as its target T1, PRMT1 (Homo sapiens, UniProt Q99873). In words: SAHH-coupled fluorescence assay, PRMT1 inhibition. It counts as biochemical. Here is the method:
A fluorescence-based SAHH-coupled assay was used to evaluate the IC50 values of inhibitors by monitoring the production of SAH from SAM after methylation. […] The fluorescence signal was monitored on a BMG CLARIOstar microplate reader with excitation at 400 nm and emission at 465 nm for 18 min. Data were processed using GraphPad Prism software 7.0. All experiments were performed in duplicate.
The fluorescence signal was monitored on a BMG CLARIOstar microplate reader with excitation at 400 nm and emission at 465 nm for 18 min. Data were processed using GraphPad Prism software 7.0. All experiments were performed in duplicate. […].

Assay [2] has as its target T1, PRMT1. As to the kind of experiment: HotSpot radioisotope 3H-AdoMet methyltransferase assay (Reaction Biology), PRMT1. It counts as biochemical. As to the method: Future studies will focus on obtaining structural information of II757 bound to PRMTs to inform how to connect to a substrate portion to increase both potency and selectivity for each PRMT.
Figure 6 Selectivity of II757 against the panel of PRMTs. II757 was tested in 10 doses with threefold serial dilution in the HotSpot methyltransferase assay at reaction biology. TEXT PRINTED IN THE PICTURE: II757: IC50 (nM) PRMT1: 16.4; IC50 (nM) PRMT3: 321; IC50 (nM) PRMT4: 5.05; IC50 (nM) PRMT5/MEP50 Complex: 18.2; IC50 (nM) PRMT5 (C449S)/MEP50: 36.6; IC50 (nM) PRMT6: 30.5; IC50 (nM) PRMT7: 555; IC50 (nM) PRMT8: 32.1

Where two headings read alike, the source gives them in different places.

T1 sequence (Q99873 whole entry, species assumed): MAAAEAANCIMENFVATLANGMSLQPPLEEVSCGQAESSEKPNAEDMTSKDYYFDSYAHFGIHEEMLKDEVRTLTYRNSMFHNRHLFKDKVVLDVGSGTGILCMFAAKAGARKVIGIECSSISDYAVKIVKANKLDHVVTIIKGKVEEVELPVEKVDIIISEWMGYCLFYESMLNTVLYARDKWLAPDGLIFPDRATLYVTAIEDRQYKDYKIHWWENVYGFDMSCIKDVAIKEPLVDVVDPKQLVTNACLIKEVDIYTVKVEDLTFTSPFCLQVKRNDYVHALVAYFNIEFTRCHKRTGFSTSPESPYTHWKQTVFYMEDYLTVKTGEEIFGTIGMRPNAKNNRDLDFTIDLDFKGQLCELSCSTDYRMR

Consider `N=C(NCCCSC[C@H]1O[C@@H](n2cnc3c(N)ncnc32)[C@H](O)[C@@H]1O)Nc1cccc(Br)c1` [Compound 6l, 1-(3-((((2S,3S,4R,5R)-5-(6-amino-9H-purin-9-yl)-3,4-dihydroxytetrahydrofuran-2-yl)methyl)thio)propyl)-3-(3-bromophenyl)guanidine], for which the IC50 is 90 ± 40 nM against PRMT1 [1] (PRMT1 0.1 µM, substrate concentration at 4 Km (footnote a), n = 2, mean ± SD) and 16.4 nM against PRMT1 [2]. The Ki is roughly 18 nM at PRMT1 [1] (SAHH-coupled assay, PRMT1, read-out: apparent Ki) and 18 ± 8 nM at PRMT1 [1] (calculated as Ki, app = IC50/(1 + [S]/Km), read-out: Ki, app).

As a reminder, the IC50 is the concentration that gives 50% inhibition. A lower IC50 goes with inhibition by little substance.

Values taken from paper PMC8230315, “A Pan-Inhibitor for Protein Arginine Methyltransferase Family Enzymes” (Biomolecules, 2021).
